Data set [1] has as its system mouse primary cortical cell. Nature of the data set: Cytotoxicity in mouse primary cortical neuron cells. It counts as cell-based. The conditions noted are these: neurotoxicity. On the procedure:
(§1) The cell viability effects of the tested compounds were determined by MTT assay. Cells (1 × 10^4 cells/100 μl/well) were seeded into 96-well culture plates. After overnight incubation, cells were treated with various concentrations of compounds for 72 hrs. Subsequently, 10 μl MTT solution (2.5 mg/ml in PBS) was added to each well, than the cells were incubated for an additional 3–4 hrs at 37°C. After centrifugation (200 × g, 10 min.), the medium with MTT was aspirated, followed by the addition of 100 μl DMSO. The optical density of each well was measured at 570 nm with a Biotek Synergy TM HT Reader.

In data set [2] the target is T1, rh-procaspase-3 (Homo sapiens, UniProt P42574).
T1 construct: purchased R&D System (Minneapolis, USA)
T1 sequence (P42574 1-277): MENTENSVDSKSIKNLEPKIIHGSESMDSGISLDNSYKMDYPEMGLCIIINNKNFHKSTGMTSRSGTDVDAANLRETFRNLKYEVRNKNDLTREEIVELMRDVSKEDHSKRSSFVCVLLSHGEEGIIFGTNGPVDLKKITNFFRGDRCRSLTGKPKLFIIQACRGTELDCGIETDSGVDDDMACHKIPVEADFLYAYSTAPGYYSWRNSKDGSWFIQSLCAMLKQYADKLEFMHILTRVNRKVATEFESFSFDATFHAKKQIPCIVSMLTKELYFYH
Nature of the data set: Caspase-3 activation assay (procaspase-3 activation in vitro). It is filed as biochemical. As to conditions: rh-procaspase-3, concentrations 0.08–100 μM. On the procedure: Procaspase-3 protein was purchased from R&D System (Minneapolis, USA). Procaspase-3 protein was added into 384-well plates. Tested compounds (or DMSO as control) were then added to achieve a final concentration of procaspase-3 of 50 ng/ml. Each plate was incubated for 2 hrs at 37°C. Then caspase-3 peptide substrate (acetyl Asp-Glu-Val-Asp-[…] (Ac-DEVD-pNa), 200 μM) were added. The absorbance of each well was measured at 405 nm in kinetic mode for 10 min [13].

Data set [3] deals with human normal cells. Nature of the data set: MTT cytotoxicity in human normal cells. It is filed as cell-based. The text has this:
Human malignant cell lines, A549, Colo-205, DU145, NCI-H226, Hep-3B, Hep-G2, K562, MCF-7, U-87, GBC-SD, MDA-MB-435S, PC-3, U-937, HL60, SH-SY5Y and human normal cell lines, MCF-10A and L-02, HUVEC were obtained from the American Type Culture Collection (Manassas, VA, USA) and National Center for Medical Culture Collection (Shanghai, China). They were routinely cultured in RPMI 1640, DMEM or DMEM/F12 (Gibco, New York, USA) supplemented with 10% foetal bovine serum (Gibco, New York, USA) and maintained at 37°C in a humidified incubator with 5% CO2.
(§2) Human peripheral blood lymphocytes were obtained as described previously. In brief, after diluting blood with PBS, lymphocytes were isolated by centrifugation over a density gradient of lymphocytes extracting solution for 15 min. at 280 × g. The cells were harvested, washed with PBS twice, and suspended in complete RPMI 1640 (Gibco, New York, USA) with 10% foetal bovine serum (Gibco, New York, USA).
The cell viability effects of the tested compounds were determined by MTT assay. Cells (1 × 10^4 cells/100 μl/well) were seeded into 96-well culture plates. After overnight incubation, cells were treated with various concentrations of compounds for 72 hrs. […] The optical density of each well was measured at 570 nm with a Biotek Synergy TM HT Reader.

Data set [4] relates to PBL. Nature of the data set: MTT cytotoxicity in human peripheral blood lymphocytes. As to conditions: 72 hrs. It is filed as cell-based. On the procedure: as §2, §1
Data set [5] has as its system XIAP and survivin mRNA. Nature of the data set: Quantitative PCR of XIAP and survivin mRNA. As to conditions: real-time PCR, different concentrations. It is filed as cell-based, human. On the procedure:
About 1 × 10^6 cells were gathered after pre-treatment with PAC-1 or WF-208 as described previously. Total RNA was isolated using RNeasy Mini Kit (Qiagen, Duesseldorf, Germany) as described by the product’s instruction. One microgram of RNA was reversely transcribed with ReverAid First Stand cDNA Sythesis Kit (Thermo Fisher, Rockford, USA). For quantitative PCR, analysis was carried out by using iQ SYBR Green Supermix (Bio-Rad, West Berkeley, USA) and the CFX96 RT-PCR Detection System (Bio-Rad) as instructed by the manufacturer. Primers were GAPDH reverse primer 5′-[…]-3′ and forward primer 5′-TTGCCGACAGGATGCAGAA-3′; XIAP reverse primer 5′-TTGCCGACAGGATGCAGAA-3′ and forward primer 5′-[…]-3′; Survivin reverse primer 5′-GGAAACTGCGGAGAAAGTG-3′ and forward primer 5′-TAAACCCTGGAAGTGGTGC-3′. The PCR cycle started with 5 min. at 95°C, followed by 35 cycles of 3 steps (30 sec. at 95°C, 25 sec. at 56°C, 20 sec. at 72°C). The result was calculated as 2^−ΔΔCt of real-time fluorescence intensity.
For orientation: Quantitative PCR measures a nucleic acid by following its amplification.

For data set [6], the system named is MCF-7 cells transfected with procaspase-3. Nature of the data set: Cytotoxicity in MCF-7 cells transfected with procaspase-3. As to conditions: different concentrations, vs empty vector. It is filed as cell-based, human. On the procedure:
as §1
HL-60 cells were transfected with procaspase-3 siRNA (Invitrogen, New York, USA, 100 nmol/l final concentration, Sense siRNA Sequence: GUCUAACUGGAAAACCCAAtt Antisense siRNA Sequence: UUGGGUUUUCCAGUUAGACtt) by Lipofectamine 2000 (Invitrogen) according to the manufacturer’s instructions. Scrambled siRNA (Invitrogen) was control. The cDNA of human procaspase-3 was cloned into pIRES2-EGFP expression vector, and procaspase-3 and EGFP genes were separately expressed. The pIRES2-EGFP and pIRES2-EGFP-procaspase-3 were transiently transfected into MCF-7 cells. Expression of procaspase-3 was verified by western blotting.

For data set [7], the system named is HL-60 cell line. Nature of the data set: MTT cell viability assay, HL-60. It is filed as cell-based. As to conditions: Homo sapiens, 72 hrs. On the procedure:
as §1
Background: Formazan colour is commonly taken as a measure of viable cells.

The target in data set [8] is T1, rh-procaspase-3. Nature of the data set: Assay of zinc inhibition of procaspase-3 activation. It counts as biochemical. The conditions noted are these: PC3 + 5 μM ZnSO4; read-out: EC50 of procaspase-3 activation in zinc-containing buffer. On the procedure: HEPES buffer [with 50 mM HEPES and 300 mM NaCl (pH 7.4)] was treated with Chelex resin to remove trace bivalent cations (including zinc ion). ZnSO4 and different concentration PAC-1 or WF-208 was added to procaspase-3 in HEPES to yield a final concentration of 0.5 μM procaspase-3. After 12 hrs of incubation at 37°C, Ac-DEVD-pNA in buffer [50 mM Hepes (pH 7.4), 100 mM NaCl, 10 mM DTT, 0.1 mM EDTA disodium salt, 0.10% Chaps, 10% glycerol] was added. The final concentration Ac-DEVD-pNA is 0.4 μM. Then the plate was read absorbance at 405 nm in kinetic mode for 10 min. On the other hand, after various time of incubation at 37°C, western blotting was used to detect the cleavage of procaspase-3 [13],[14].

Data set [9] relates to HL-60 cell line. Nature of the data set: MTT cell viability assay, HL-60. It counts as cell-based, human. The conditions noted are these: HL-60, 10 μM ZnSO4, 24 hrs.

A word on the IC50: it is the concentration at which inhibition is half-maximal. A word on the EC50: it is the concentration at which the effect is half-maximal.

Each structure is given as a SMILES string. Read-outs that look alike come from different tables or passages of the source.

Consider `O=C(CN1CCN(Cc2nc(-c3ccc(COc4ccc(Cl)cc4)cc3)no2)CC1)N/N=C/c1ccc(OCc2csc(Cc3ccc4c(c3)OCO4)n2)cc1O` [C2], for which the IC50 in data set [1] amounted to 96.2 µM; in [3] (Figure 3 panel D, read-out: Mean (IC50) of human normal cells), 348 µM; in data set [3] (text b44, read-out: mean IC50 value on three different normal cells), 216 µM; in data set [4], 743 µM; in data set [7], 0.08 µM. For the same molecule, the concentration giving a half-maximal response (EC50) in data set [2] was found to be 0.56 µM; in [8] it was 2.49 µM. Further, in [5], the “XIAP and survivin mRNA” value is on record as “failed to change”. The “cytotoxic effect in MCF-7 cells transfected with procaspase-3” value in data set [6] is “more sensitive”. For the same molecule, the “cytotoxicity on co-treatment with ZnSO4” value in data set [9] is “significantly relieved”.
